Our source for the IC50 values is patent US20050282818A1, “Ubiquitin ligase inhibitors” (Rigel Pharmaceuticals, Inc., priority 2004, published 2005).

Where two headings read alike, the source gives them in different places.

The target in assay [1] is T1, TRAF6/Uev1A/Ubc13 (Homo sapiens, UniProt Q9Y4K3).
T1 sequence (Q9Y4K3 1-522): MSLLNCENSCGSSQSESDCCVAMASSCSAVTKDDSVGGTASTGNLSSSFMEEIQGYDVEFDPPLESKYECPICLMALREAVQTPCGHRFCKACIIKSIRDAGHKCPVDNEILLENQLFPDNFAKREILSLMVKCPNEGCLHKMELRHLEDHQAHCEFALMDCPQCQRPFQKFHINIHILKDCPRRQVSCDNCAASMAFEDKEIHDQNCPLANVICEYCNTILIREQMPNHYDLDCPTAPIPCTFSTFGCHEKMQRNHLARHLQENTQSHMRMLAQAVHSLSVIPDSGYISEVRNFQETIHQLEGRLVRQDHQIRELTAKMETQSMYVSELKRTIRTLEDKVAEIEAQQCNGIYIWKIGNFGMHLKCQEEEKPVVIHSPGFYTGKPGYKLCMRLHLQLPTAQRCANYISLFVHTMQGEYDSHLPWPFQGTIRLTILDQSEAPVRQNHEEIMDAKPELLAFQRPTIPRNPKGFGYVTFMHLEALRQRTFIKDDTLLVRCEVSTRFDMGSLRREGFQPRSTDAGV
The assay can be described thus: TRAF6/Uev1A/Ubc13 plate-based ubiquitin ligase assay. The assay is classed as biochemical. In outline: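 Ligase activity was read as luminescence from anti-Flag/HRP detection of Flag-ubiquitin bound to casein-blocked Ni-plates alongside His-ubiquitin after a 1 h room-temperature reaction. Buffer: 62.5 mM Tris pH 7.5, 6.25 mM MgCl2, 1.0 mM DTT, 2 μM ATP; E1, Uev1a/Ubc13 and TRAF6 added last to start. IC50s derived across compound concentrations.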

Assay [2] deals with A549 cells. Kind of assay: Cell proliferation PAD assay, A549. The assay is classed as cell-based. The conditions noted are these: Homo sapiens, 48 hours. The procedure, abridged: (§1)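 2,000 cells/well; compound added at 24 h (duplicate, 6.3-fold series, 10 mM stock, 500× dilution into wells); 48 h, 37 °C/5% CO2. Formamide fix, DAPI stain, image-based counts of live (proliferation), apoptotic, dead cells.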

Assay [3] deals with H1299 cells. Kind of assay: Cell proliferation PAD assay, H1299. In kind it is cell-based. To be noted: Homo sapiens, 48 hours. The procedure, abridged: as §1
[4] abbreviates: NCI-H1299, 3pt, read-out: H1299 3pt.
Setting [5] is: NCI-H1299, 6pt, read-out: H1299 6pt.

Regarding `N#Cc1ccccc1N1CCN(S(=O)(=O)c2c(Cl)ccc3nonc23)CC1` [compound 180, 2-{4-[(5-chloro-2,1,3-benzoxadiazol-4-yl)sulfonyl]piperazin-1-yl}benzonitrile], the IC50 in assay [1] was no less than 20 µM; in assay [2] (3pt, read-out: A549 3pt), 1 to 20 µM; in assay [2] (6pt, read-out: A549 6pt), no less than 20 µM; in assay [3] (setting [4]), 1 to 20 µM; in assay [3] (setting [5]) it was no less than 20 µM.

`O=S(=O)(c1c(Cl)ccc2nonc12)N1CCN(c2cnccn2)CC1` [compound 200, 5-chloro-4-[(4-pyrazin-2-ylpiperazin-1-yl)sulfonyl]-2,1,3-benzoxadiazole]: the IC50 in assay [1] is no less than 20 µM; in assay [2] (3pt, read-out: A549 3pt), 1 to 20 µM; in assay [2] (6pt, read-out: A549 6pt) it was no less than 20 µM; in assay [3] (setting [4]) it was 1 to 20 µM; in assay [3] (setting [5]) it was less than 1 µM.

Consider `CC1(C)CCN(S(=O)(=O)c2c(Cl)ccc3nonc23)CC1` [compound 245, 5-chloro-4-[(4,4-dimethylpiperidin-1-yl)sulfonyl]-2,1,3-benzoxadiazole], for which the IC50 in assay [1] was 1 to 20 µM; in assay [2] (6pt, read-out: A549 6pt), no less than 20 µM; in assay [3] (setting [5]), less than 1 µM.

For `CC(C)(C)c1ccc(-c2ccc([N+](=O)[O-])c3nonc23)cc1` [compound 313, 4-(4-Tert-butylphenyl)-7-nitro-2,1,3-benzoxadiazole], the IC50 in assay [1] is 1 to 20 µM; in assay [2] (6pt, read-out: A549 6pt), less than 1 µM; in assay [3] (setting [5]), less than 1 µM.

As for `COc1cc(NS(=O)(=O)c2ccc(Cl)c3nonc23)c(OC)cc1Cl` [compound 341, 7-chloro-N-(4-chloro-2,5-dimethoxyphenyl)-2,1,3-benzoxadiazole-4-sulfonamide], the IC50 in assay [1] is no less than 20 µM; in assay [2] (6pt, read-out: A549 6pt), 1 to 20 µM; in assay [3] (setting [5]) it was 1 to 20 µM.

As to `CC(=O)N1CCN(S(=O)(=O)c2c(Cl)ccc3nonc23)CC1` [compound 201, 4-[(4-acetylpiperazin-1-yl)sulfonyl]-5-chloro-2,1,3-benzoxadiazole], the IC50 in assay [1] is no less than 20 µM; in assay [2] (3pt, read-out: A549 3pt) it was 1 to 20 µM; in assay [2] (6pt, read-out: A549 6pt) it was no less than 20 µM; in assay [3] (setting [4]) it was 1 to 20 µM; in assay [3] (setting [5]), less than 1 µM.

For the compound `O=S(=O)(c1c(N2CCC(Oc3ccccc3C(F)(F)F)CC2)ccc2nonc12)N1CCC(Oc2ccccc2C(F)(F)F)CC1` [compound 340, 5-[4-(2-{trifluoromethyl}phenoxy)piperidin-1-yl]-4-{[4-(2-{trifluoromethyl}phenoxy)piperidin-1-yl]sulfonyl}-2,1,3-benzoxadiazole], the IC50 in assay [1] is no less than 20 µM; in assay [2] (6pt, read-out: A549 6pt), 1 to 20 µM; in assay [3] (setting [5]) it was 1 to 20 µM.

On to `CCOC(=O)c1cc(C#N)c(C)nc1N1CCN(c2ccc([N+](=O)[O-])c3nonc23)CC1` [compound 153, ethyl 5-cyano-6-methyl-2-[4-(7-nitro-2,1,3-benzoxadiazol-4-yl)piperazin-1-yl]nicotinate], for which the IC50 in assay [1] was 1 to 20 µM; in assay [2] (3pt, read-out: A549 3pt), no less than 20 µM; in assay [3] (setting [4]) it was no less than 20 µM.

Take `O=[N+]([O-])c1ccc(Oc2c(Cl)cc(S(=O)(=O)Nc3cccc4nsnc34)cc2Cl)c(Cl)c1` [compound 73, N-2,1,3-benzothiadiazol-4-yl-3,5-dichloro-4-(2-chloro-4-nitrophenoxy)benzenesulfonamide]: the IC50 in assay [1] was 1 to 20 µM; in assay [2] (3pt, read-out: A549 3pt), no less than 20 µM; in assay [2] (6pt, read-out: A549 6pt), 1 to 20 µM; in assay [3] (setting [4]), no less than 20 µM; in assay [3] (setting [5]), 1 to 20 µM.

Take `O=S(=O)(c1ccc(Sc2ccc(O)cc2)c2nonc12)N1CCC(Oc2ncccn2)CC1` [compound 226, 4-[(7-{[4-(pyrimidin-2-yloxy)piperidin-1-yl]sulfonyl}-2,1,3-benzaxadiazol-4-yl)thio]phenol]: the IC50 in assay [1] lay in the range of 1 to 20 µM; in assay [2] (6pt, read-out: A549 6pt) it was 1 to 20 µM; in assay [3] (setting [5]), 1 to 20 µM.

For `O=[N+]([O-])c1ccc(Sc2cccc3cccnc23)c2nonc12` [compound 5, 8-[(7-Nitro-2,1,3-benzoxadiazol-4-yl)thio]quinoline], the IC50 in assay [1] was 1 to 20 µM; in assay [2] (6pt, read-out: A549 6pt) it was less than 1 µM; in assay [3] (setting [5]) it was less than 1 µM.

For the compound `COc1cccc(-c2ccc([N+](=O)[O-])c3nonc23)c1F` [compound 314, 4-(2-Fluoro-3-methoxyphenyl)-7-nitro-2,1,3-benzoxadiazole], the IC50 in assay [1] is 1 to 20 µM; in assay [2] (6pt, read-out: A549 6pt), 1 to 20 µM; in assay [3] (setting [5]) it was 1 to 20 µM.

In the case of `COc1cc(Nc2ccc(S(=O)(=O)Nc3cc(OC)c(Cl)cc3OC)c3nonc23)c(OC)cc1Cl` [compound 342, N-(4-chloro-2,5-dimethoxyphenyl)-7-([4-chloro-2,5-dimethoxyphenyl]amino)-2,1,3-benzoxadiazole-4-sulfonamide], the IC50 in assay [1] is 1 to 20 µM; in assay [2] (6pt, read-out: A549 6pt) it was 1 to 20 µM; in assay [3] (setting [5]), less than 1 µM.

For `Cc1cccc(N2CCN(S(=O)(=O)c3c(Cl)ccc4nonc34)CC2)n1` [compound 202, 5-chloro-4-{[4-(6-methylpyridin-2-yl)piperazin-1-yl]sulfonyl}-2,1,3-benzoxadiazole], the IC50 is no less than 20 µM in assay [1]; 1 to 20 µM in assay [2] (3pt, read-out: A549 3pt); less than 1 µM in assay [2] (6pt, read-out: A549 6pt); 1 to 20 µM in assay [3] (setting [4]); less than 1 µM in assay [3] (setting [5]).

As for `O=S(=O)(c1c(N2CCN(c3ccc(Cl)c(C(F)(F)F)c3)CC2)ccc2nonc12)N1CCN(c2ccc(Cl)c(C(F)(F)F)c2)CC1` [compound 181, 5-{4-[4-chloro-3-(trifluoromethyl)phenyl]piperazin-1-yl}-4-({4-[4-chloro-3-(trifluoromethyl)phenyl]piperazin-1-yl}sulfonyl)-2,1,3-benzoxadiazole], the IC50 in assay [1] is 1 to 20 µM; in assay [2] (3pt, read-out: A549 3pt) it was no less than 20 µM; in assay [2] (6pt, read-out: A549 6pt), 1 to 20 µM; in assay [3] (setting [4]) it was no less than 20 µM; in assay [3] (setting [5]) it was no less than 20 µM.

For the compound `N#Cc1cccnc1N1CCN(S(=O)(=O)c2ccc(Cl)c3nonc23)CC1` [compound 170, 2-{4-[(7-chloro-2,1,3-benzoxadiazol-4-yl)sulfonyl]piperazin-1-yl}nicotinomtrile], the IC50 is 1 to 20 µM in assay [1]; 1 to 20 µM in assay [2] (3pt, read-out: A549 3pt); no less than 20 µM in assay [2] (6pt, read-out: A549 6pt); 1 to 20 µM in assay [3] (setting [4]); no less than 20 µM in assay [3] (setting [5]).

Consider `O=S(=O)(c1c(Cl)ccc2nonc12)N1CCN(c2ncc(C(F)(F)F)cc2Cl)CC1` [compound 179, 5-chloro-4-({4-[3-chloro-5-(trifluoromethyl)pyridin-2-yl]piperazin-1-yl}sulfonyl)-2,1,3-benzoxadiazole], for which the IC50 in assay [1] is 1 to 20 µM; in assay [2] (3pt, read-out: A549 3pt), 1 to 20 µM; in assay [2] (6pt, read-out: A549 6pt), 1 to 20 µM; in assay [3] (setting [4]), 1 to 20 µM; in assay [3] (setting [5]), less than 1 µM.

For the compound `N#CC1(c2ccccc2)CCN(S(=O)(=O)c2ccc(O)c3nonc23)CC1` [compound 199, 1-[(7-hydroxy-2,1,3-benzoxadiazol-4-yl)sulfonyl]-4-phenylpiperidine-4-carbonitrile], the IC50 is no less than 20 µM in assay [1]; 1 to 20 µM in assay [2] (3pt, read-out: A549 3pt); no less than 20 µM in assay [2] (6pt, read-out: A549 6pt); 1 to 20 µM in assay [3] (setting [4]); no less than 20 µM in assay [3] (setting [5]).

As for `Cc1cccc(-c2ccc([N+](=O)[O-])c3nonc23)c1` [compound 310, 4-(3-Methylphenyl)-7-nitro-2,1,3-benzoxadiazole], the IC50 in assay [1] is no less than 20 µM; in assay [2] (6pt, read-out: A549 6pt), less than 1 µM; in assay [3] (setting [5]), less than 1 µM.

On to `O=S(=O)(c1ccc(Sc2cccc3cccnc23)c2nonc12)N1CCN(c2ncc(C(F)(F)F)cc2Cl)CC1` [compound 177, 8-{[7-({4-[3-chloro-5-(trifluoromethyl)pyridin-2-yl]piperazin-1-yl}sulfonyl)-2,1,3-benzoxadiazol-4-yl]thio}quinoline], for which the IC50 is 1 to 20 µM in assay [1]; no less than 20 µM in assay [2] (3pt, read-out: A549 3pt); no less than 20 µM in assay [2] (6pt, read-out: A549 6pt); no less than 20 µM in assay [3] (setting [4]); no less than 20 µM in assay [3] (setting [5]).
